Results: the supplement of paper PMC10307832

Tests used:
Assay in all cases: relative viability (nuclei count vs DMSO), 5 days (fraction); higher = more cells survive
[1] = compound: COc1cc2ncn(-c3cc(OCc4ccccc4C(F)(F)F)c(C(N)=O)s3)c2cc1OC + CC(=O)c1c(C)c2cnc(Nc3ccc(N4CCNCC4)cn3)nc2n(C2CCCC2)c1=O [Palbociclib] (partner 0.5 µM)
Outline: (§1)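 Five library-drug doses in √10 steps were combined with a fixed anchor-drug dose, or a single drug was given alone, by pin tool to lung cancer cell lines in 1536-well plates the day after seeding. Nuclei were stained and counted after 5 days. Relative viability is the nuclei count in treated wells over that in vehicle wells, taken as the median of duplicate plates.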

[2] = compound: COc1cc2ncn(-c3cc(OCc4ccccc4C(F)(F)F)c(C(N)=O)s3)c2cc1OC + CCNC(=O)c1noc(-c2cc(C(C)C)c(O)cc2O)c1-c1ccc(CN2CCOCC2)cc1 [Luminespib] (partner 0.01 µM)
Outline: as §1

[3] = compound: COc1cc2ncn(-c3cc(OCc4ccccc4C(F)(F)F)c(C(N)=O)s3)c2cc1OC + COc1cccc2cc(-c3nc([C@H]4CC[C@H](C(=O)O)CC4)n4ncnc(N)c34)[nH]c12 [OSI-027] (partner 0.5 µM)
Outline: as §1

[4] = compound: COc1cc2ncn(-c3cc(OCc4ccccc4C(F)(F)F)c(C(N)=O)s3)c2cc1OC + CS(=O)(=O)N1CCN(Cc2cc3nc(-c4cccc5[nH]ncc45)nc(N4CCOCC4)c3s2)CC1 [Pictilisib] (partner 1 µM)
Outline: as §1

Cell Line | relative viability ([1]; first compound 0.05 µM) | relative viability ([1]; first compound 0.1581 µM) | relative viability ([1]; first compound 0.5 µM) | relative viability ([1]; first compound 1.581 µM) | relative viability ([1]; first compound 5 µM) | relative viability ([2]; first compound 0.05 µM) | relative viability ([2]; first compound 0.1581 µM) | relative viability ([2]; first compound 0.5 µM) | relative viability ([2]; first compound 1.581 µM) | relative viability ([2]; first compound 5 µM) | relative viability ([3]; first compound 0.05 µM) | relative viability ([3]; first compound 0.1581 µM) | relative viability ([3]; first compound 0.5 µM) | relative viability ([3]; first compound 1.581 µM) | relative viability ([3]; first compound 5 µM) | relative viability ([4]; first compound 0.05 µM) | relative viability ([4]; first compound 0.1581 µM) | relative viability ([4]; first compound 0.5 µM) | relative viability ([4]; first compound 1.581 µM) | relative viability ([4]; first compound 5 µM)
NCI-H661 | 0.441 | 0.428 | 0.335 | 0.248 | 0.241 | 0.812 | 0.872 | 0.528 | 0.255 | 0.212 | 0.755 | 0.581 | 0.53 | 0.191 | 0.174 | 0.486 | 0.328 | 0.458 | 0.259 | 0.257
LCLC-103H | 0.477 | 0.471 | 0.456 | 0.35 | 0.302 | 0.771 | 0.927 | 0.594 | 0.273 | 0.151 | 0.495 | 0.538 | 0.405 | 0.249 | 0.12 | 0.594 | 0.695 | 0.54 | 0.271 | 0.135
LOU-NH91 | 0.529 | 0.479 | 0.517 | 0.446 | 0.333 | 0.358 | 0.385 | 0.308 | 0.278 | 0.301 | 0.677 | 0.772 | 0.656 | 0.525 | 0.682 | 0.554 | 0.544 | 0.51 | 0.399 | 0.418
NCI-H1650 | 0.295 | 0.329 | 0.234 | 0.146 | 0.141 | 0.187 | 0.187 | 0.193 | 0.19 | 0.185 | 0.503 | 0.654 | 0.208 | 0.134 | 0.149 | 0.52 | 0.615 | 0.322 | 0.156 | 0.146
NCI-H3122 | 0.189 | 0.202 | 0.148 | 0.14 | 0.13 | 0.0893 | 0.0896 | 0.149 | 0.0746 | 0.0906 | 1.01 | 0.555 | 0.124 | 0.113 | 0.157 | 0.578 | 0.269 | 0.282 | 0.212 | 0.184
RERF-LC-KJ | 1.03 | 1.16 | 0.71 | 0.616 | 0.46 | 1.31 | 1.24 | 0.373 | 0.306 | 0.268 | 0.534 | 0.494 | 0.226 | 0.205 | 0.253 | 0.557 | 0.692 | 0.269 | – | 0.185
NCI-H1651 | 0.535 | 0.492 | 0.481 | 0.484 | 0.397 | 1.15 | 0.858 | 0.36 | 0.137 | 0.109 | 0.762 | 0.737 | 0.594 | 0.145 | 0.0994 | 0.662 | 0.7 | 0.616 | 0.111 | 0.102
NCI-H2087 | 0.232 | 0.185 | 0.24 | 0.0808 | 0.106 | 0.174 | 0.177 | 0.162 | 0.14 | 0.167 | 0.747 | 0.471 | 0.181 | 0.101 | 0.0877 | 1.11 | 0.556 | 0.454 | 0.211 | 0.134
